Test results from ChEMBL document CHEMBL1151360, “Antibiotic principle of Eupatorium capillifolium” (1981).
Active and inactive are the calls of the source. The rule behind the calls is not given here.

Legend:
Bacillus subtilis [1] = test: Antibacterial activity against Bacillus subtilis ATCC 6633 at 750 ug/mL in synthetic medium by disc-plate assay; format: functional; conditions: read-out: IZ
Bacillus subtilis [2] = test: Antibacterial activity against Bacillus subtilis ATCC 6633 at 500 ug/mL in synthetic medium by disc-plate assay; format: functional; conditions: read-out: IZ
Bacillus subtilis [3] = test: Antibacterial activity against Bacillus subtilis ATCC 6633 at 250 ug/mL in synthetic medium by disc-plate assay; format: functional; conditions: read-out: IZ
Bacillus subtilis [4] = test: Antibacterial activity against Bacillus subtilis ATCC 6633 at 60 ug/mL in synthetic medium by disc-plate assay; format: functional; conditions: read-out: IZ
Bacillus subtilis [5] = test: Antibacterial activity against Bacillus subtilis ATCC 6633 at 30 ug/mL in synthetic medium by disc-plate assay; format: functional; conditions: read-out: IZ
Bacillus subtilis [6] = test: Antibacterial activity against Bacillus subtilis ATCC 6633 at 15 ug/mL in synthetic medium by disc-plate assay; format: functional; conditions: read-out: IZ
Bacillus subtilis [7] = test: Antibacterial activity against Bacillus subtilis ATCC 6633 at 750 ug/mL in complex natural medium by disc-plate assay; format: functional, organism-based
Escherichia coli [8] = test: Antibacterial activity against Escherichia coli ATCC 10536 in complex natural medium by disc-plate assay; format: functional, organism-based
Escherichia coli [9] = test: Antibacterial activity against Escherichia coli ATCC 10536 in synthetic medium by disc-plate assay; format: functional, organism-based
Staphylococcus aureus = test: Antibacterial activity against Staphylococcus aureus ATCC 6538P in complex natural medium by disc-plate assay; format: functional, organism-based
Bacillus subtilis [10] = test: Antibacterial activity against Bacillus subtilis ATCC 6633 at 750 ug/mL in synthetic medium by disc-plate assay in presence of 5000 ug/mL glutamic acid; format: functional
Bacillus subtilis [11] = test: Antibacterial activity against Bacillus subtilis ATCC 6633 at 750 ug/mL in synthetic medium by disc-plate assay in presence of 3000 ug/mL glutamic acid; format: functional
Bacillus subtilis [12] = test: Antibacterial activity against Bacillus subtilis ATCC 6633 at 750 ug/mL in synthetic medium by disc-plate assay in presence of 1000 ug/mL glutamic acid; format: functional
Bacillus subtilis [13] = test: Antibacterial activity against Bacillus subtilis ATCC 6633 at 750 ug/mL in synthetic medium by disc-plate assay in presence of 750 ug/mL glutamic acid; format: functional
Bacillus subtilis [14] = test: Antibacterial activity against Bacillus subtilis ATCC 6633 at 750 ug/mL in synthetic medium by disc-plate assay in presence of 500 ug/mL glutamic acid; format: functional
Bacillus subtilis [15] = test: Antibacterial activity against Bacillus subtilis ATCC 6633 at 750 ug/mL in synthetic medium by disc-plate assay in presence of 250 ug/mL glutamic acid; format: functional
Bacillus subtilis [16] = test: Antibacterial activity against Bacillus subtilis ATCC 6633 at 750 ug/mL in synthetic medium by disc-plate assay in presence of 120 ug/mL glutamic acid; format: functional
Bacillus subtilis [17] = test: Antibacterial activity against Bacillus subtilis ATCC 6633 at 750 ug/mL in synthetic medium by disc-plate assay in presence of 60 ug/mL glutamic acid; format: functional
Bacillus subtilis [18] = test: Antibacterial activity against Bacillus subtilis ATCC 6633 at 750 ug/mL in synthetic medium by disc-plate assay in presence of 30 ug/mL glutamic acid; format: functional
Bacillus subtilis [19] = test: Antibacterial activity against Bacillus subtilis ATCC 6633 at 750 ug/mL in synthetic medium by disc-plate assay in presence of 10 ug/mL glutamic acid; format: functional
Bacillus subtilis [20] = test: Antibacterial activity against Bacillus subtilis ATCC 6633 at 120 ug/mL in synthetic medium by disc-plate assay; format: functional; conditions: read-out: IZ

## C=C(C(=O)O)[C@@H]1CC[C@@]2(C)CCCC(=C)[C@@H]2C1 [COSTIC ACID]
Bacillus subtilis [1]
  zone of inhibition at 750 µg/mL: 26 mm
Bacillus subtilis [2]
  zone of inhibition at 500 µg/mL: 24 mm
Bacillus subtilis [3]
  zone of inhibition at 250 µg/mL: 22 mm
Bacillus subtilis [4]
  zone of inhibition at 60 µg/mL: 16.5 mm
Bacillus subtilis [5]
  zone of inhibition at 30 µg/mL: 14.5 mm
Bacillus subtilis [6]
  zone of inhibition at 15 µg/mL: 0 mm
Bacillus subtilis [7]
  Activity: inactive
Escherichia coli [8]
  Activity: inactive
Escherichia coli [9]
  Activity: inactive
Staphylococcus aureus
  Activity: inactive
Bacillus subtilis [10]
  inhibition (INH): 89%
  inhibition zone (IZ): 18 mm
Bacillus subtilis [11]
  inhibition (INH): 89%
  inhibition zone (IZ): 18 mm
Bacillus subtilis [12]
  inhibition (INH): 89%
  inhibition zone (IZ): 18 mm
Bacillus subtilis [13]
  inhibition at 750 µg/mL: 85%
Bacillus subtilis [13]; read-out: IZ
  zone of inhibition at 750 µg/mL: 19 mm
Bacillus subtilis [14]
  inhibition (INH): 80%
  inhibition zone (IZ): 20 mm
Bacillus subtilis [15]
  inhibition (INH): 74%
  inhibition zone (IZ): 21 mm
Bacillus subtilis [16]
  inhibition (INH): 74%
  inhibition zone (IZ): 21 mm
Bacillus subtilis [17]
  inhibition (INH): 60%
  inhibition zone (IZ): 22.5 mm
Bacillus subtilis [18]
  inhibition (INH): 40%
  inhibition zone (IZ): 24 mm
Bacillus subtilis [19]
  inhibition (INH): 0%
  inhibition zone (IZ): 26 mm
Bacillus subtilis [20]
  zone of inhibition at 120 µg/mL: 19 mm
